According to ChEMBL document CHEMBL3232722, “Synthesis and kinase inhibitory activity of new sulfonamide derivatives of pyrazolo[4,3-e][1,2,4]triazines” (Eur J Med Chem, 2014):
Calls of active or inactive are those of the source. The rule behind the calls is not given here.

Experiments:
[1] = (§1) In vitro antiproliferative activity against human BV173 cells assessed as decrease in cell viability after 24 hrs by MTT assay; assay type: functional, cell-based; conditions: BV-173, 24 h
BV-173 = assay: as §1; assay type: functional, cell-based
CCRF-CEM = assay: In vitro antiproliferative activity against human CCRF-CEM cells assessed as decrease in cell viability after 24 hrs by MTT assay; assay type: functional, cell-based
[2] = target: T1, Bcr/Abl fusion protein (Homo sapiens) (UniProt P00519+P11274); assay: Inhibition of Bcr/Abl kinase in human K562 cells assessed as decrease in STAT5 phosphorylation at Tyr694 after 1 hr by immunoblot analysis; assay type: cell-based
T1 sequence (P00519 whole entry, looked up, the tested form may be a part): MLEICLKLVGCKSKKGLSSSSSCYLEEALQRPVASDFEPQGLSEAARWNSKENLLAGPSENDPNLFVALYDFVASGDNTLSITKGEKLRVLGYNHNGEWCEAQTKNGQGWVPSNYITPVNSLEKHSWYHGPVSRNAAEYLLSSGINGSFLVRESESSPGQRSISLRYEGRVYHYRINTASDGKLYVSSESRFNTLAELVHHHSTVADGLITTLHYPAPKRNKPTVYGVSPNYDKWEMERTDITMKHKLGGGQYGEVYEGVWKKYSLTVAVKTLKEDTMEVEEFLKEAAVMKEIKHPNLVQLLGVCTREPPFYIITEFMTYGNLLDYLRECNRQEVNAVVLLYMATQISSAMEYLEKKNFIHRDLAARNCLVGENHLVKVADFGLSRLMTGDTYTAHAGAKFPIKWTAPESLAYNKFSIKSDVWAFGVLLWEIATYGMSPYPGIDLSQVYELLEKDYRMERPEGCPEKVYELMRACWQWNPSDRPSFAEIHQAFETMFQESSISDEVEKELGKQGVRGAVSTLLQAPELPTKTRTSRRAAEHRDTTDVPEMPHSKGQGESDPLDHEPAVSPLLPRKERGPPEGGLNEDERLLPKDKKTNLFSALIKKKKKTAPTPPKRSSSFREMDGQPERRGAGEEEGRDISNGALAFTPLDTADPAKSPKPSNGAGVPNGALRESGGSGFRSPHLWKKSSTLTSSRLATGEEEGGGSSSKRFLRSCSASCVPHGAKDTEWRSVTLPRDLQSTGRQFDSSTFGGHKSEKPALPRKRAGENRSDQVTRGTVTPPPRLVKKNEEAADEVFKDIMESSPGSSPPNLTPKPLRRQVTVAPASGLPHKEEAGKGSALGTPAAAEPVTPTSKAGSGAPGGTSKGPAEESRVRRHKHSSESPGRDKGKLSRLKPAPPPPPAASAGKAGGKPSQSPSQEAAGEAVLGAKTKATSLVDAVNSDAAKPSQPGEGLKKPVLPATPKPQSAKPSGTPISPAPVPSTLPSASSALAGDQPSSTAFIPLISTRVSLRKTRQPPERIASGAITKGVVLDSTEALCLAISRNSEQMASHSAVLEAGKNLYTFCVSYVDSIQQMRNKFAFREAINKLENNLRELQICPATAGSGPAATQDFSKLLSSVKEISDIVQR
T1 sequence (P11274 whole entry, looked up, the tested form may be a part): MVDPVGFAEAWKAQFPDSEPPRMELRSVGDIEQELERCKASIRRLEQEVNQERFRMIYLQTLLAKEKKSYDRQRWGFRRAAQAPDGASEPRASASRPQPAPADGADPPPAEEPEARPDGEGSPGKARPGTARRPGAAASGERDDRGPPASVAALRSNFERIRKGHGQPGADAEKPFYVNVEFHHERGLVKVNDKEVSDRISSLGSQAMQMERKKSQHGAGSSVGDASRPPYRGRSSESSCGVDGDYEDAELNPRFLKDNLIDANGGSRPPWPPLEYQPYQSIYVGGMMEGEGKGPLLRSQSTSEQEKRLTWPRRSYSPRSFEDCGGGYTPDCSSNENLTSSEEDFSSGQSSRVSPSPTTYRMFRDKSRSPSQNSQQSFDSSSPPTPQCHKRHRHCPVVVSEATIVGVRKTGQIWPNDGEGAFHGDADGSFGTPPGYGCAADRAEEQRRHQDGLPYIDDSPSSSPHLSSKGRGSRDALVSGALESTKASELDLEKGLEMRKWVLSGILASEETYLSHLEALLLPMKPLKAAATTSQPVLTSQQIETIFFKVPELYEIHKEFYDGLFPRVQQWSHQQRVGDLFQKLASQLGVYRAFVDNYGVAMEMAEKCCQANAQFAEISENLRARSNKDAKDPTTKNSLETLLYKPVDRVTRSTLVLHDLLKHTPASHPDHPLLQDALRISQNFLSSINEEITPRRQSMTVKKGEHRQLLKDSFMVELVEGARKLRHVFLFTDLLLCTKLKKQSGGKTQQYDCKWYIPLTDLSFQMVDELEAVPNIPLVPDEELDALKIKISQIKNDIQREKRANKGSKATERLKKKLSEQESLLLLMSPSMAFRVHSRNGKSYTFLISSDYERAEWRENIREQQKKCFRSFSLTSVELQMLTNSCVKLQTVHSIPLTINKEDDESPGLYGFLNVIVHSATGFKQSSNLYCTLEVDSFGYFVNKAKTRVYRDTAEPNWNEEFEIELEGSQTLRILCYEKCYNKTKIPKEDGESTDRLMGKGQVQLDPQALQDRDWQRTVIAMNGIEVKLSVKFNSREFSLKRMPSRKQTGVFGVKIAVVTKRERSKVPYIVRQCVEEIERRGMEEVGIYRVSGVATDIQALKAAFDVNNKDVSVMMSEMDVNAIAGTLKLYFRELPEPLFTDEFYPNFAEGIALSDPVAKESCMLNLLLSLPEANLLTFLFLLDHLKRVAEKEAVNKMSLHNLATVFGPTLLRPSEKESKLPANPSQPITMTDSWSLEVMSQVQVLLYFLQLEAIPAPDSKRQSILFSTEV

K562 [3] = assay: Effect on cell cycle distribution in human K562 cells after 24 hrs by propidium iodide staining based flow cytometry; assay type: functional
MCF7 [4] = assay: Ratio of IC50 for human MCF7 cells to IC50 for human K562 cells; assay type: functional
MDA-MB-231 [5] = assay: In vitro antiproliferative activity against human MDA-MB-231 cells assessed as decrease in cell vaibility after 24 hrs by MTT assay; assay type: functional, cell-based; conditions: for IC50: MDA-MB-231, 24 h
[6] = target: T1, Bcr/Abl fusion protein (Homo sapiens); assay: Inhibition of Bcr/Abl kinase tyrosine phosphorylation in human K562 cells after 1 hr by immunoblot analysis; assay type: cell-based
[7] = target: T2, Tyrosine-protein kinase ABL1 (Homo sapiens, UniProt P00519); assay: Inhibition of Abl kinase tyrosine phosphorylation in human K562 cells after 1 hr by immunoblot analysis; assay type: cell-based
T2 sequence (P00519 whole entry): as the sequence (P00519 whole entry, looked up, the tested form may be a part) above

K562 [8] = assay: Induction of apoptosis in human K562 cells assessed as increase in sub-diploid cell population at 10 to 100 uM after 24 hrs by propidium iodide staining based flow cytometry; assay type: functional
HL-60 = assay: In vitro antiproliferative activity against human HL60 cells assessed as decrease in cell viability after 24 hrs by MTT assay; assay type: functional, cell-based; conditions: for IC50: HL-60, 24 h
MDA-MB-231 [9] = assay: Cytostatic activity against human MDA-MB-231 cells assessed as decrease in [3H]thymidine incorporation into DNA after 24 hrs by liquid scintillation counting analysis; assay type: functional, cell-based
[10] = target: T2, Tyrosine-protein kinase ABL1; assay: Inhibition of recombinant Abl kinase (unknown origin) expressed in Sf9 cells using GGEAIYAAPFKK as substrate in presence of [gamma33P]ATP
[11] = target: T1, Bcr/Abl fusion protein (Homo sapiens); assay: Inhibition of Bcr/Abl kinase in human K562 cells assessed as decrease in CrkL phosphorylation at Tyr207 at 1 to 100 uM after 1 hr by immunoblot analysis; assay type: cell-based
K562 [12] = assay: Inhibition of tyrosine phosphorylation of protein with molecular weight between 40 and 60 kDa in human K562 cells after 1 hr by immunoblot analysis; assay type: functional, cell-based
K562 [13] = assay: Antiproliferative activity against human K562 cells assessed as increase in number of cells with compromised cell membranes at 10 to 100 uM after 24 hrs by propidium iodide exclusion assay based flow cytometry; assay type: functional
MCF7 [14] = assay: Cytostatic activity against human MCF7 cells assessed as decrease in [3H]thymidine incorporation into DNA after 24 hrs by liquid scintillation counting analysis; assay type: functional, cell-based
[15] = target: Casein kinase II subunit alpha (Homo sapiens, UniProt P68400); assay: Inhibition of CK2alpha1 (unknown origin) using casein as substrate in presence of [gamma33P]ATP
Sequence of Casein kinase II subunit alpha (P68400 whole entry): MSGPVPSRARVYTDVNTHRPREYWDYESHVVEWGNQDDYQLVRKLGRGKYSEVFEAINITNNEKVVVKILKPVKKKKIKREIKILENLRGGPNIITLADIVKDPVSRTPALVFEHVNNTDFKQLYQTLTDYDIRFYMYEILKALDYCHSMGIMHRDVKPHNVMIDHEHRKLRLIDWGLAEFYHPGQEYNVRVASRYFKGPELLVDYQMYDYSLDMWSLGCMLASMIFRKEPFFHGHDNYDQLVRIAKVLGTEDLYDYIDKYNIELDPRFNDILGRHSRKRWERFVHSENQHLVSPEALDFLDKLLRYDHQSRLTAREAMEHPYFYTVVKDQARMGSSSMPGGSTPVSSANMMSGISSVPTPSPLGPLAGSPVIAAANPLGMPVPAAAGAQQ

MCF7 [16] = assay: In vitro antiproliferative activity against human MCF7 cells assessed as decrease cell viability after 24 hrs by MTT assay; assay type: functional, cell-based; conditions: for IC50: MCF7, 24 h
K562 [17] = assay: In vitro antiproliferative activity against human K562 cells assessed as decrease in cell viability after 24 hrs by MTT assay; assay type: functional, cell-based; conditions: for IC50: K562, 24 h
[18] = target: Cyclin-dependent kinase 2/cyclin E1 (Homo sapiens, UniProt P24941); assay: Inhibition of CDK2/cyclin E (unknown origin) expressed in Sf9 cells using histone H1 as substrate in presence of [gamma33P]ATP
K562 [19] = conditions: Homo sapiens, 10 uM
Description: Inhibition of tyrosine phosphorylation of protein with molecular weight between 40 and 60 kDa in human K562 cells at 10 uM after 1 hr by immunoblot analysis

MDA-MB-231 [20] = assay: Ratio of IC50 for human MDA-MB-231 cells to IC50 for human K562 cells; assay type: functional
K562 [21] = assay: Inhibition of tyrosine phosphorylation of protein with molecular weight between 40 and 60 kDa in human K562 cells at 1 to 100 uM after 1 hr by immunoblot analysis; assay type: functional, cell-based
[22] = target: T1, Bcr/Abl fusion protein (Homo sapiens); assay: Inhibition of Bcr/Abl kinase tyrosine phosphorylation in human K562 cells at 1 to 100 uM after 1 hr by immunoblot analysis; assay type: cell-based
[23] = target: T2, Tyrosine-protein kinase ABL1; assay: Inhibition of Abl kinase tyrosine phosphorylation in human K562 cells at 1 to 100 uM after 1 hr by immunoblot analysis; assay type: cell-based

IC50 (CCRF-CEM) [µM] | inhibition [2] | IC50 (MDA-MB-231 [5]) [µM] | IC50 (HL-60; read-out: IC50) [µM] | IC50 (MDA-MB-231 [9]) [µM] | IC50 [10] [µM] | IC50 (MCF7 [14]) [µM] | IC50 [15] [µM] | IC50 (MCF7 [16]) [µM] | IC50 (K562 [17]) [µM] | Structure (SMILES) | IC50 [1] [µM] | inhibition (BV-173) | inhibition (CCRF-CEM) | inhibition (MDA-MB-231 [5]) | Activity (K562 [8]) | inhibition (HL-60) | inhibition (MDA-MB-231 [9]) | inhibition (MCF7 [14]) | inhibition (MCF7 [16]) | inhibition (K562 [17]) | other results
20 | Dose-dependent effect | 130 | 55 | 103 | 5.8 | 170 | > 25 | 150 | 27 | Cc1nn(C)c2nnc(Nc3ccc(S(=O)(=O)N4CCNCC4)cc3)nc12 | 22 | Dose-dependent effect | Dose-dependent effect | Dose-dependent effect | Active | Dose-dependent effect | Dose-dependent effect | Dose-dependent effect | Dose-dependent effect | Dose-dependent effect | Activity (K562 [3]): inactive; Ratio IC50 (MCF7 [4]): 5; inhibition [6]: Dose-dependent effect; inhibition [7]: Dose-dependent effect; inhibition [11]: Active; inhibition (K562 [12]): Dose-dependent effect; Activity (K562 [13]): Active; IC50 [18]: > 25 µM
45 | – | – | – | – | – | – | – | – | 13 | Cc1ccc(NC(=O)c2ccc(CN3CCN(C)CC3)cc2)cc1Nc1nccc(-c2cccnc2)n1 [IMATINIB] | 20 | – | – | – | – | – | – | – | – | – | IC50 (HL-60): 55 µM; inhibition (K562 [19]): Active
36 | Dose-dependent effect | 155 | 38 | 150 | 5.9 | 123 | > 50 | 140 | 21 | Cc1nn(C)c2nnc(Nc3ccc(S(=O)(=O)N4CCCNCC4)cc3)nc12 | 22 | Dose-dependent effect | Dose-dependent effect | Dose-dependent effect | Active | Dose-dependent effect | Dose-dependent effect | Dose-dependent effect | Dose-dependent effect | Dose-dependent effect | Activity (K562 [3]): inactive; Ratio IC50 (MDA-MB-231 [20]): 7; inhibition [6]: Dose-dependent effect; inhibition [7]: Dose-dependent effect; inhibition (K562 [12]): Dose-dependent effect; Activity (K562 [13]): Active; IC50 [18]: > 50 µM
56 | Dose-dependent effect | 120 | 42 | 90 | 15 | 85 | > 50 | 126 | 77 | Cc1nn(C)c2nnc(Nc3ccc(S(=O)(=O)NCCN)cc3)nc12 | 39 | Dose-dependent effect | Dose-dependent effect | Dose-dependent effect | inactive | Dose-dependent effect | Dose-dependent effect | Dose-dependent effect | Dose-dependent effect | Dose-dependent effect | inhibition (K562 [21]): inactive; inhibition [22]: inactive; inhibition [23]: inactive; IC50 [18]: 34.9 µM
